According to ChEMBL document CHEMBL5058641, “Data for DCP probe TP-050” (2022):

How the values were obtained:
[1] = target: Muscarinic acetylcholine receptor M2 (Homo sapiens) (UniProt P08172); details: Compound concentration 10.0 uM
Histamine H1 receptor [2] = target: T1, Histamine H1 receptor (Homo sapiens, UniProt P35367); assay: HRH1 Eurofins SafetyScan (Receptor)
Adenosine receptor A2a = Adenosine receptor A2a (Homo sapiens, UniProt P29274); assay: ADORA2A Eurofins SafetyScan (Receptor)
[3] = target: Cholecystokinin receptor type A (Homo sapiens, UniProt P32238); assay: CCKAR Eurofins SafetyScan (Receptor)
[4] = target: T2, Sodium-dependent noradrenaline transporter (Homo sapiens, UniProt P23975); details: Compound concentration 10.0 uM
T2 sequence (P23975 whole entry): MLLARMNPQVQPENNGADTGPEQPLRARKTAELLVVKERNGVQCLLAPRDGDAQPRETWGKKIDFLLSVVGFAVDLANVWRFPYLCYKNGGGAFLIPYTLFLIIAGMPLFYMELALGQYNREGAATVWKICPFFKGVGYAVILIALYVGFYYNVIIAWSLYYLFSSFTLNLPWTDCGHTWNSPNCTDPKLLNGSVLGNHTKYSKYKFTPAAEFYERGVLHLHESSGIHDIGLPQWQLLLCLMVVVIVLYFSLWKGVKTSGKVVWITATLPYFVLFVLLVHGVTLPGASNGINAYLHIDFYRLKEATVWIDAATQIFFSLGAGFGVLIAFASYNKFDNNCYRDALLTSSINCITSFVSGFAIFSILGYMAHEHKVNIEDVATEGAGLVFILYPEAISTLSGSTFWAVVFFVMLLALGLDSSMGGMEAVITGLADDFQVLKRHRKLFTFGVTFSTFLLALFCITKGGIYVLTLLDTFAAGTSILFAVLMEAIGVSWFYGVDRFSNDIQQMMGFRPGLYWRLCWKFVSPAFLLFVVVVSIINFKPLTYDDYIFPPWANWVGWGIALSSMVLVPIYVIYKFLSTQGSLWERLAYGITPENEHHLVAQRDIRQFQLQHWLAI

[5] = target: 5-hydroxytryptamine receptor 2A (Homo sapiens, UniProt P28223); details: Compound concentration 10.0 uM
[6] = target: Delta-type opioid receptor (Homo sapiens, UniProt P41143); assay: OPRD1 Eurofins SafetyScan (Receptor)
Sequence of Delta-type opioid receptor (P41143 whole entry): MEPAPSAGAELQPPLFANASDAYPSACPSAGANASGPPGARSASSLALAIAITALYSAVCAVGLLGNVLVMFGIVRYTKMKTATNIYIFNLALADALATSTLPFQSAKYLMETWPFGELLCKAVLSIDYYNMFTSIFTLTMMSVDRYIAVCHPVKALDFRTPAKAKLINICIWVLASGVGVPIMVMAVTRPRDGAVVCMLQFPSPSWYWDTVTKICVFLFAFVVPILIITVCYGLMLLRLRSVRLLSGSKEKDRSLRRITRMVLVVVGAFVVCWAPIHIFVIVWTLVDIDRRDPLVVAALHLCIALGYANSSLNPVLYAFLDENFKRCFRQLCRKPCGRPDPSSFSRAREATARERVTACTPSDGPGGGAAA

[7] = target: Neuronal acetylcholine receptor; alpha4/beta2 (Homo sapiens, UniProt P17787+P43681); assay: nAChR(a4/b2) Eurofins SafetyScreen (Other); parameters: species or system Blocker
Mu-type opioid receptor [8] = target: T3, Mu-type opioid receptor (Homo sapiens, UniProt P35372); details: Compound concentration 10.0 uM
T3 sequence (P35372 whole entry): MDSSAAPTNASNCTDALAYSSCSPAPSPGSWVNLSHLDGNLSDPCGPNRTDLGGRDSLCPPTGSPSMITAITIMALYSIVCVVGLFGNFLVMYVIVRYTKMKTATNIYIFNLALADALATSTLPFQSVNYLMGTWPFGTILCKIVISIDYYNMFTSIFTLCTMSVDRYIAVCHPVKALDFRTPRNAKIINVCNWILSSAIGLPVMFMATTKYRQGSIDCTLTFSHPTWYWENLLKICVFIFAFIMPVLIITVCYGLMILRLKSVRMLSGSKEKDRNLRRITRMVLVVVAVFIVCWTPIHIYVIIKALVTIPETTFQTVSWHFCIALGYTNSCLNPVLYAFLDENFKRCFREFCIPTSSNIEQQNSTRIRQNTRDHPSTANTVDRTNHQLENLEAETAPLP

Histamine H1 receptor [9] = target: T1, Histamine H1 receptor; details: Compound concentration 10.0 uM
[10] = target: Alpha-1B adrenergic receptor (Homo sapiens) (UniProt P35368); details: Compound concentration 10.0 uM
[11] = target: 5-hydroxytryptamine receptor 1D (Homo sapiens, UniProt P28221); assay: GPCRScan assay: inhibition of 5-HT1D; parameters: radioligand conc. used [nm] 1.0 – 2.0, parental cells HEKT
[12] = target: Vascular endothelial growth factor receptor 2 (Homo sapiens, UniProt P35968); assay: VEGFR2 Eurofins SafetyScreen (Other); parameters: species or system Inhibitor
[13] = target: Alpha-1A adrenergic receptor (Homo sapiens, UniProt P35348); assay: ADRA1A Eurofins SafetyScan (Receptor)
Sequence of Alpha-1A adrenergic receptor (P35348 whole entry): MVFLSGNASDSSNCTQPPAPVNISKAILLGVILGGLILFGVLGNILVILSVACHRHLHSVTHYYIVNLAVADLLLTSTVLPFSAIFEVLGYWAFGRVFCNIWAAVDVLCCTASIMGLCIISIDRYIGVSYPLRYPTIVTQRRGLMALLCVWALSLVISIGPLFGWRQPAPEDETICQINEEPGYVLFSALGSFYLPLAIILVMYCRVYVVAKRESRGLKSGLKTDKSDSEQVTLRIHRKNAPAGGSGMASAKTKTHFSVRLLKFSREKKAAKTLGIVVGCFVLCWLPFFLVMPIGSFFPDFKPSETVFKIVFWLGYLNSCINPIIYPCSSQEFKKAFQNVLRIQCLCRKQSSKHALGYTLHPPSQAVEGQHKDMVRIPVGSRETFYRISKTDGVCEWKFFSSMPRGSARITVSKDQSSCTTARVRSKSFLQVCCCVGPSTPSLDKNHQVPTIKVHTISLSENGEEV

[14] = target: 5-hydroxytryptamine receptor 2B (Homo sapiens, UniProt P41595); details: Compound concentration 10.0 uM
D(1A) dopamine receptor = D(1A) dopamine receptor (Homo sapiens, UniProt P21728); assay: DRD1 Eurofins SafetyScan (Receptor)
[15] = target: Sodium-dependent serotonin transporter (Homo sapiens, UniProt P31645); assay: SERT Eurofins SafetyScreen (Other); parameters: species or system Blocker
[16] = target: Histamine H3 receptor (Homo sapiens) (UniProt Q9Y5N1); details: Compound concentration 10.0 uM
[17] = target: Beta-3 adrenergic receptor (Homo sapiens) (UniProt P13945); details: Compound concentration 10.0 uM
[18] = target: T4, 5-hydroxytryptamine receptor 1B (Homo sapiens, UniProt P28222); details: Compound concentration 10.0 uM
T4 sequence (P28222 whole entry): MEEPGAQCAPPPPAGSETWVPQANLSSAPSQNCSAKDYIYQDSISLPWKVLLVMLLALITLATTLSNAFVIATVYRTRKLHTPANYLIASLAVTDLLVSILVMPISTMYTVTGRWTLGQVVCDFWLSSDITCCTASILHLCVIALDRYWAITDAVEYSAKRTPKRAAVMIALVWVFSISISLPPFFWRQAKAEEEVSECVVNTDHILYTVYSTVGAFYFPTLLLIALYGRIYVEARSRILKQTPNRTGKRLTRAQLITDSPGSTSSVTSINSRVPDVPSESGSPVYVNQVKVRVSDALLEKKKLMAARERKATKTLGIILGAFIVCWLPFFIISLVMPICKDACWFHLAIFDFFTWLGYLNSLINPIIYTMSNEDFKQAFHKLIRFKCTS

[19] = target: 5-hydroxytryptamine receptor 5A (Homo sapiens) (UniProt P47898); details: Compound concentration 10.0 uM
[20] = target: Alpha-2C adrenergic receptor (Homo sapiens) (UniProt P18825); details: Compound concentration 10.0 uM
[21] = target: T4, 5-hydroxytryptamine receptor 1B; assay: HTR1B Eurofins SafetyScan (Receptor)
[22] = target: T2, Sodium-dependent noradrenaline transporter; assay: NET Eurofins SafetyScreen (Other); parameters: species or system Blocker
[23] = target: Sigma non-opioid intracellular receptor 1 (Homo sapiens) (UniProt Q99720); details: Compound concentration 10.0 uM
Cannabinoid receptor 2 = Cannabinoid receptor 2 (Homo sapiens, UniProt P34972); assay: CNR2 Eurofins SafetyScan (Receptor)
[24] = target: 5-hydroxytryptamine receptor 3A (Homo sapiens, UniProt P46098); assay: HTR3A Eurofins SafetyScreen (Other); parameters: species or system Blocker
[25] = target: Beta-1 adrenergic receptor (Homo sapiens, UniProt P08588); assay: ADRB1 Eurofins SafetyScan (Receptor)
Glucocorticoid receptor = Glucocorticoid receptor (Homo sapiens, UniProt P04150); assay: GR Eurofins SafetyScan (Receptor)
Sequence of Glucocorticoid receptor (P04150 whole entry): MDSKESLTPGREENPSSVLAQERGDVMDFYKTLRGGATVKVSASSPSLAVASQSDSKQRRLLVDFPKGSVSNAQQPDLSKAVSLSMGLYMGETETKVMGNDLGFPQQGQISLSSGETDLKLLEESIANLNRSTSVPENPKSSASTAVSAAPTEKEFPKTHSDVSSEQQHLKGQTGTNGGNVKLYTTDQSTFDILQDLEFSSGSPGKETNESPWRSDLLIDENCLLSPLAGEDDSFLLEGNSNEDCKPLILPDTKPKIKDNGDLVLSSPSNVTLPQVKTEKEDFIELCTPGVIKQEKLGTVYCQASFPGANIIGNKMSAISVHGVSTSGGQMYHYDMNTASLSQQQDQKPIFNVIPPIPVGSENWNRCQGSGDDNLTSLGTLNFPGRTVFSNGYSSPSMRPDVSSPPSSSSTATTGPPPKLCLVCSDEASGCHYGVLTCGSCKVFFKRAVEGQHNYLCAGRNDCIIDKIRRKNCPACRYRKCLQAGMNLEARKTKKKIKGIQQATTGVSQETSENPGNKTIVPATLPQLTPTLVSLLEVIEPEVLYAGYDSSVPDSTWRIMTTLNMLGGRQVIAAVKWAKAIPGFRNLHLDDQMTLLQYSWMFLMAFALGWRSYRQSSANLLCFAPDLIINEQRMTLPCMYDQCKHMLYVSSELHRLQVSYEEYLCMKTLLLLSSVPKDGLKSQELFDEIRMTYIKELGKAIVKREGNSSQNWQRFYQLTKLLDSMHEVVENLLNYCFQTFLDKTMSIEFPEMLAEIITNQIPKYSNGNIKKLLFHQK

[26] = target: Glutamate receptor ionotropic, NMDA 1 (Homo sapiens, UniProt Q05586+Q13224); assay: NMDAR (1A/2B) Eurofins SafetyScreen (Other); parameters: species or system Blocker
[27] = target: 5-hydroxytryptamine receptor 1A (Homo sapiens, UniProt P08908); assay: HTR1A Eurofins SafetyScan (Receptor)
Mu-type opioid receptor [28] = target: T3, Mu-type opioid receptor; assay: OPRM1 Eurofins SafetyScan (Receptor)
[29] = target: T5, Beta-2 adrenergic receptor (Homo sapiens, UniProt P07550); assay: ADRB2 Eurofins SafetyScan (Receptor)
[30] = target: Amine oxidase [flavin-containing] A (Homo sapiens, UniProt P21397); assay: MAOA Eurofins SafetyScreen (Other); parameters: species or system Inhibitor
[31] = target: Prostaglandin G/H synthase 1 (Homo sapiens, UniProt P23219); assay: COX1 Eurofins SafetyScreen (Other); parameters: species or system Inhibitor
Cannabinoid receptor 1 = Cannabinoid receptor 1 (Homo sapiens, UniProt P21554); assay: CNR1 Eurofins SafetyScan (Receptor)
Sequence of Cannabinoid receptor 1 (P21554 whole entry): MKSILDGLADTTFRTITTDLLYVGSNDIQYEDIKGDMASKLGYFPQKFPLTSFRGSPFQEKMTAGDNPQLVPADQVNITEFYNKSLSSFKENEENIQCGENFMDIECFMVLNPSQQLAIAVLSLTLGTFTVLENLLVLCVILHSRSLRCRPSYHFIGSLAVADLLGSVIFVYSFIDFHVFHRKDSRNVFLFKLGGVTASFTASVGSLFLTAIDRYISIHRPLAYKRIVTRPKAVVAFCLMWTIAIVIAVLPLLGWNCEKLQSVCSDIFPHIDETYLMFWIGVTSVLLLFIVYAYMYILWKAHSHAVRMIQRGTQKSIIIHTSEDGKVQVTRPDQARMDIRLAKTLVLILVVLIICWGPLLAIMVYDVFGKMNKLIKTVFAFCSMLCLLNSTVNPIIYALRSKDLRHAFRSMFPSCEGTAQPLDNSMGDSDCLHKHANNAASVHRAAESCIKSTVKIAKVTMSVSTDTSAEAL

[32] = target: Muscarinic acetylcholine receptor M4 (Homo sapiens) (UniProt P08173); details: Compound concentration 10.0 uM
[33] = target: T5, Beta-2 adrenergic receptor; details: Compound concentration 10.0 uM
[34] = target: Glutamate receptor ionotropic, NMDA 2C (Homo sapiens, UniProt Q05586+Q14957); assay: GluN2C-containing NMDA receptor (Ca2+ influx) assay (EC50)
Insulin receptor = Insulin receptor (Homo sapiens, UniProt P06213); assay: INSR Eurofins SafetyScreen (Other); parameters: species or system Inhibitor
[35] = target: D(1B) dopamine receptor (Homo sapiens) (UniProt P21918); details: Compound concentration 10.0 uM
[36] = target: Rho-associated protein kinase 1 (Homo sapiens, UniProt Q13464); assay: ROCK1 Eurofins SafetyScreen (Other); parameters: species or system Inhibitor
[37] = target: Histamine H4 receptor (Homo sapiens) (UniProt Q9H3N8); details: Compound concentration 10.0 uM
[38] = target: Kappa-type opioid receptor (Homo sapiens, UniProt P41145); assay: OPRK1 Eurofins SafetyScan (Receptor)
Sequence of Kappa-type opioid receptor (P41145 whole entry): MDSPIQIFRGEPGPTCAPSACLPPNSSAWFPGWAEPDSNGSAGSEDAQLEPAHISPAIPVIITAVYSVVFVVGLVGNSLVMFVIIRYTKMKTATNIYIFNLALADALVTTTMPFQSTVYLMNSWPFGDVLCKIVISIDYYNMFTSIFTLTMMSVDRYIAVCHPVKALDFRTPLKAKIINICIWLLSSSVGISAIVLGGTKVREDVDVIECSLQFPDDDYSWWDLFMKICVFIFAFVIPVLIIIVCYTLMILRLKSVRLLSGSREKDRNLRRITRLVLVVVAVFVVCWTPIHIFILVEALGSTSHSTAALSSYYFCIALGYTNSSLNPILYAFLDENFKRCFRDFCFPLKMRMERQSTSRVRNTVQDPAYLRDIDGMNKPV

[39] = target: Glutamate receptor ionotropic, NMDA 2D (Homo sapiens, UniProt O15399+Q05586); assay: GluN2D-containing NMDA receptor (Ca2+ influx) assay (EC50)

T1 sequence (P35367 whole entry): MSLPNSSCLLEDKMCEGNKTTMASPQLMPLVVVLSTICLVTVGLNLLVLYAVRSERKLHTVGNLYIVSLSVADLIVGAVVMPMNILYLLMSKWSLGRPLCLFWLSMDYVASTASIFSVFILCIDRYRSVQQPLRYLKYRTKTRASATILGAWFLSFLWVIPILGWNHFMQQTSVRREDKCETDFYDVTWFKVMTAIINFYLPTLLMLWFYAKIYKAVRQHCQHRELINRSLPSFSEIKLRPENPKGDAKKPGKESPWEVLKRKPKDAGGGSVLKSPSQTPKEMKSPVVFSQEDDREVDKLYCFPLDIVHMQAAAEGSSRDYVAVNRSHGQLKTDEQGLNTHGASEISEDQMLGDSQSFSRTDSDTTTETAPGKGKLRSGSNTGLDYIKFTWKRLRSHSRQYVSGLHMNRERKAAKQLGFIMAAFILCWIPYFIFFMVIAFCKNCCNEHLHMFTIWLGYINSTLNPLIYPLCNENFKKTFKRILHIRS
Sequence of Adenosine receptor A2a (P29274 whole entry): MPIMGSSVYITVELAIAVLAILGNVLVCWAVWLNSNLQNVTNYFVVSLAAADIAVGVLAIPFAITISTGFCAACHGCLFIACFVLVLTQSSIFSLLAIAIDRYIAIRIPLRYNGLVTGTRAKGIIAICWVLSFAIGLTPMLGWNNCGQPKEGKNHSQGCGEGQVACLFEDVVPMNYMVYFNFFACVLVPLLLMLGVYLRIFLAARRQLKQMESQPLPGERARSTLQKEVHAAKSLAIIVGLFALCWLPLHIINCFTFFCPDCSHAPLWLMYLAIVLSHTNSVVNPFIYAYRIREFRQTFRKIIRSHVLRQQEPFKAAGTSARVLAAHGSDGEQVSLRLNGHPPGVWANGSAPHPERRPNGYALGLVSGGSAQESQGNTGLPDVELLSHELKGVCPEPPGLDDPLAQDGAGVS

SMILES: Cc1cn([C@H](C)CC#N)c(=O)c2cc(Cn3nc(C(F)F)cc3Cl)nn12
- inhibition [1]: 4.32%
- EC50 (Histamine H1 receptor [2]): > 10 µM
- IC50 (Histamine H1 receptor [2]): > 10 µM
- EC50 (Adenosine receptor A2a): > 10 µM
- IC50 (Adenosine receptor A2a): > 10 µM
- EC50 [3]: > 10 µM
- IC50 [3]: > 10 µM
- inhibition [4]: -4%
- inhibition [5]: -5.37%
- EC50 [6]: > 10 µM
- IC50 [6]: > 10 µM
- IC50 [7]: > 10 µM
- inhibition (Mu-type opioid receptor [8]): 0.85%
- inhibition (Histamine H1 receptor [9]): 31.7%
- inhibition [10]: -6.73%
- Ki [11]: > 10 µM
- pKi [11]: < 5
- IC50 [12]: > 10 µM
- EC50 [13]: > 10 µM
- IC50 [13]: > 10 µM
- inhibition [14]: 42.7%
- EC50 (D(1A) dopamine receptor): > 10 µM
- IC50 (D(1A) dopamine receptor): > 10 µM
- IC50 [15]: > 10 µM
- inhibition [16]: 34.8%
- inhibition [17]: -3.8%
- inhibition [18]: 21.7%
- inhibition [19]: 7.54%
- inhibition [20]: -1.11%
- EC50 [21]: > 10 µM
- IC50 [21]: > 10 µM
- IC50 [22]: > 10 µM
- inhibition [23]: 1.48%
- EC50 (Cannabinoid receptor 2): > 10 µM
- IC50 (Cannabinoid receptor 2): > 10 µM
- IC50 [24]: > 10 µM
- EC50 [25]: > 10 µM
- IC50 [25]: > 10 µM
- EC50 (Glucocorticoid receptor): > 10 µM
- IC50 (Glucocorticoid receptor): > 10 µM
- IC50 [26]: > 10 µM
- EC50 [27]: > 10 µM
- IC50 [27]: > 10 µM
- EC50 (Mu-type opioid receptor [28]): > 10 µM
- IC50 (Mu-type opioid receptor [28]): > 10 µM
- EC50 [29]: > 10 µM
- IC50 [29]: > 10 µM
- IC50 [30]: > 10 µM
- IC50 [31]: > 10 µM
- EC50 (Cannabinoid receptor 1): > 10 µM
- IC50 (Cannabinoid receptor 1): > 10 µM
- inhibition [32]: 4.14%
- inhibition [33]: -1.62%
- EC50 [34]: > 30 µM (not active)
- IC50 (Insulin receptor): > 10 µM
- inhibition [35]: 19.3%
- IC50 [36]: > 10 µM
- inhibition [37]: 25.2%
- EC50 [38]: > 10 µM
- IC50 [38]: > 10 µM
- EC50 [39]: > 9.6 µM (not active)
